Test results taken from USRE41151E1, “Protected forms of pharmacologically active agents and uses thereof” (Medinox, Inc., priority 2000, dated 2010).

Experiments:
Sprague-Dawley rats = test: Rat carrageenan-induced hindlimb edema model, paw volume increase; format: in vivo; details: for paw volume increase, 4 Hours / paw volume increase, 5 Hours: one hour before carrageenan
Method: Efficacy of NSAIDs in acute inflammation can be estimated by using intraplanar injection of carrageenan in the rat. Sprague-Dawley rats (200-250 g male) are injected intradermally in the footpad with 50 μl of a 1% carrageenan solution in PBS. Swelling of the injected paw is measured 3 & 4 hours later, using a plethysmometer.

[1] = Plasma pharmacokinetics of naproxen after oral administration in rats; format: in vivo, rat; details: 2 mg/kg (amount of naproxen in dose)
Method: The carotid artery of Sprague-Dawley rat (250-350 g, male) was catheterized at least one day before drug administration and flushed with 30% polyvinyl pyrrolidone (PVP) (400 U/mL of heparin) to maintain patency. […] After centrifugation (13,000 rpm, 10 min, 4° C.), the plasma samples were collected and analyzed in the same day.
Aliquot of plasma sample (100 μL) was mixed with 200 μL of acetonitrile. After vortexing and centrifugation (13,000 rpm, 10 min, 4° C.), 200 μL of supernatant was removed and added to 300 μL of a 58:42 mixture of 50 mM phosphate buffer (pH 5.0) and acetonitrile. Following vortexing and centrifugation, 25 μL of supernatant was removed and analyzed by HPLC with a UV detection system.
The average plasma concentration at each time point was calculated and utilized in a pharmacokinetic analysis. Non-compartmental pharmacokinetic analysis was carried out using WinNolin (Pharsight, Mountainview, Calif.) to calculate the maximum concentration (Cmax), time to maximum concentration (Tmax), area under the curve from zero to the last time point (AUClast), the area under the curve from zero to infinite time (AUCinf), and the terminal phase half life (Beta-t1/2).

In the case of COc1ccc2cc([C@H](C)C(=O)O)ccc2c1 [Naproxen], the “paw volume increase, 4 Hours” value (Sprague-Dawley rats; naproxen 1 mg/kg oral) is reported as 0.63 ± 0.07, the “paw volume increase, 5 Hours” value (Sprague-Dawley rats; naproxen 1 mg/kg oral) is reported as 0.75 ± 0.08 and the “paw volume increase, 4 Hours” value (Sprague-Dawley rats; naproxen 10 mg/kg oral) is reported as 0.32 ± 0.05. For the same molecule, the “paw volume increase, 5 Hours” value (Sprague-Dawley rats; naproxen 10 mg/kg oral) was 0.39 ± 0.07, the reduction in swelling (Sprague-Dawley rats; oral 10 mg/kg one hour before carrageenan, at both time points) was “approximately 50%” and the AUFINF [1] was 55 ± 7 μg * ht/mL.
